Data taken from article PMC12435690, “KYLO-0603, a novel liver-targeting, thyroid hormone receptor-β agonist for the inhibition of MASH progression” (PLOS One, 2025).

Legend:
[1] = 28-day repeated-dose toxicity study in cynomolgus monkeys; type: in vivo
Description: (§1) To evaluate the preclinical safety profile of Kylo-0603, a novel liver-targeted thyroid hormone receptor β (TRβ) agonist with therapeutic potential, systematic toxicological assessments were conducted in both non-human primates (cynomolgus monkeys) and rodents (Sprague-Dawley rats). […] The no-observed-adverse-effect level (NOAEL) was determined to be 1.5 mg/kg/day. Collectively, these independent toxicological investigations substantiate Kylo-0603’s favorable safety, providing rigorous preclinical support for clinical advancement.

[2] = 182-day long-term dosing toxicity study in Sprague-Dawley rats; type: in vivo
Description: as §1

[3] = in vitro; conditions: cynomolgus monkey, plasma
Description: (§2) We evaluated the metabolic stability of Kylo-0603 in the plasma of CD-1 mice, Sprague–Dawley (SD) rats, beagle dogs, cynomolgus monkeys, and humans. The plasma from the five species was mixed with Kylo-0603 (2 μM) and incubated at 37°C in a thermostatic water tank. The plasma concentrations of Kylo-0603 were monitored via LC-MS/MS at 0, 10, 30, 60, and 120 min.

[4] = tested on: MASH mouse model (F2 ~ 3); test: MASH mouse model (F2~3) induced with HFD and CCl4; type: in vivo, C57BL/6J mice; parameters: Steatosis score / Lobular inflammation score / Ballooning score / NAFLD activity score / Fibrosis Score: scale not given here
Description: A total of 80 5-week-old C57BL/6J male mice were randomly assigned to two groups based on their body weight: a control group (n = 10) and a high-fat diet group (HFD, D12492, n = 70). During the eight-week feeding period, the mice in the two groups were provided with the corresponding diets, including shavings bedding, and their weights were recorded once a week. The change of the weight of each group of mice at a given time were recorded. […] The control diet group was provided with a control diet supplemented with the solvent vehicle, while the HFD control group was given a high-fat diet with the same supplement. The remaining […] groups were provided a high-fat diet containing the solvent and administered a range of doses of Kylo-0603, namely, 0.1 mg/kg, 0.3 mg/kg, 1 mg/kg, 3 mg/kg, and 10 mg/kg. The HFD control group was administered intraperitoneal injections of 0.2 ml/kg CCl4 twice a week for 8 weeks, during which time the mice were fed the same diets as before. The mice were weighed weekly, and the dosage for each week was determined based on their body weight at the commencement of that week. After a period of fasting of between 5 and 6 hours on the day following the final administration of the drug, the mice in each group were euthanized, whole blood was collected from either the orbits or the heart, and the serum was separated and stored at −80°C. The heart and liver tissues of the mice in each group were weighed and photographed. The heart tissues were then quickly frozen in liquid nitrogen and stored in a refrigerator at −80°C, and the middle lobe of the liver was divided into four parts. Two of these samples were quickly frozen in liquid nitrogen and stored at −80°C (for RNA sequencing). The remaining two portions were fixed in a 4% Paraformaldehyde solution and subsequently dehydrated for paraffin embedding and OCT embedding. […] For the quantification of hepatic lipid content, liver tissues were meticulously homogenized in isopropanol (1:9 tissue to isopropanol by mass/volume) on ice. The homogenate was then incubated overnight at 4°C and subsequently centrifuged to […]. The resulting solution was analyzed for TG and Chol using a Hitachi 7020 automated hematochemistry system.
The samples were then washed with pure water.

[5] = in vitro; conditions: CD-1, mouse, plasma
Description: as §2

[6] = tested on: liver of the MASH mouse models (F2 ~ 3); test: Gene expression analysis (transcriptome sequencing) in liver of MASH mouse models; type: in vivo, C57BL/6J mice
Description: Transcriptome sequencing was performed on the Illumina sequencing platform, and the library sequencing and biotechnological analysis were performed by Beijing Novozymes Technology Co.
To explore the mechanism by which Kylo-0603 promotes lipid metabolism, we used Illumina’s NEBNext® UtraTM RNA Library Prep Kit to examine the expression of relevant genes in the livers of the MASH mouse models (F2 ~ 3) after Kylo-0603 administration (Fig 8). We first examined the expression of THR-regulated genes, including iodothyronine deiodinase 1 (Dio1), malic enzyme 1 (Me1), and thyroid hormone responsive (Thrsp). Me1 encodes an enzyme that catalyzes the conversion of malate to pyruvate while concomitantly generating NADPH from NADP, and its upregulation promotes energy metabolism. Thrsp is mainly a nuclear protein induced by thyroid hormones, carbohydrate intake, adipose tissue differentiation and lactation and plays an important role in the regulation of lipid metabolism. […] LDL-R (low-density lipoprotein receptor) promotes the cellular uptake of LDL and facilitates cholesterol degradation. […] This finding was consistent with a dose-dependent reduction in the serum LDL-C level (Fig 9A). […] This therapeutic effect was validated by assessing liver histopathology in animal models. Kylo-0603 inhibited the genes encoding the inflammatory factors Tnfrsf1a, IL6, IL17rb, and IL17ra (Fig 9B).
Fig 9 Effects of Kylo-0603 on the expression of related genes of the MASH mouse models. Total RNA was extracted from the frozen liver tissue of the MASH mouse models (F2 ~ 3), and the mice were injected daily with saline or Kylo-0603 at a dosage of 0.1–3 mg/kg/day. Transcriptome sequencing is based on the Illumina sequencing platform. The relative expression of a gene was calculated by normalizing the true expression level of the target gene to the expression level of that gene in the control group.

[7] = 3 mg/kg, 8 weeks, vs HFD + CCl4 + Vehicle
[8] = 10 mg/kg, 8 weeks, vs HFD + CCl4 + Vehicle
[9] = abstract: MASH mouse model, maximum effect

Compound: CC(=O)N[C@H]1[C@H](OCCCCCCNC(=O)CCOCC(COCCC(=O)NCCCCCCO[C@@H]2O[C@H](CO)[C@H](O)[C@H](O)[C@H]2NC(C)=O)(COCCC(=O)NCCCCCCO[C@@H]2O[C@H](CO)[C@H](O)[C@H](O)[C@H]2NC(C)=O)NC(=O)CCCCCNC(=O)COc2cc(C)c(Cc3ccc(O)c(C(C)C)c3)c(C)c2)O[C@H](CO)[C@H](O)[C@@H]1O [Kylo-0603]
- perturbations of the hypothalamic-pituitary-thyroid (HPT) axis ([1]; cynomolgus monkeys): no perturbations
- macroscopic lesions or histopathological changes ([1]; oral 0.5, 1 and 5 mg/kg per day, 28 days, 56-day recovery): no macroscopic lesions or histopathological changes
- pathological changes ([2]; 182 days, maximum dose 1.5 mg/kg/day, 8-week recovery): only mild Kylo-0603-related pathological changes
- perturbations of the hypothalamic-pituitary-thyroid (HPT) axis ([2]; Sprague-Dawley rats): no perturbations
- NOAEL at 182 day ([2]; Sprague-Dawley, rat, in vivo, 1.5 mg/kg/day, 182-day study, SD rats, read-out: no-observed-adverse-effect level (NOAEL)): 1.5 mg/kg/day
- half-life at 2 μM [3]: > 6.21 h
- decrease of fibrosis score ([4]; 3 mg/kg and 10 mg/kg, 8 weeks, vs HFD + CCl4 + Vehicle): 0.6 points
- ALT decrease ([4]; 3 mg/kg, 8 weeks, serum): 73.8%
- AST decrease ([4]; 3 mg/kg, 8 weeks, serum): 76.3%
- decrease in ballooning degeneration score [4, 7]: 0.7 points
- reduction in hepatic steatosis score [4, 7]: exceeding 1.0 points
- reduction in inflammation score [4, 7]: exceeding 1.0 points
- reduction of NAS (NAFLD Activity Score) [4, 7]: 3.5 points
- decrease in ballooning degeneration score [4, 8]: 0.8 points
- reduction in hepatic steatosis score [4, 8]: exceeding 1.0 points
- reduction in inflammation score [4, 8]: exceeding 1.0 points
- reduction of NAS (NAFLD Activity Score) [4, 8]: 3.7 points
- TSH levels ([4]; 8 weeks, blood): decreasing trends
- levels of thyroid hormones T3, fT3, T4 and fT4 ([4]; 8 weeks, blood): increasing trends
- Ballooning score ([4]; HFD + CCl4, 0.1 mg/kg, 8 weeks): 1.4 ± 0.5
- Fibrosis Score ([4]; HFD + CCl4, 0.1 mg/kg, 8 weeks): 2.8 ± 0.4
- Lobular inflammation score ([4]; HFD + CCl4, 0.1 mg/kg, 8 weeks): 2.4 ± 0.5
- NAFLD activity score ([4]; HFD + CCl4, 0.1 mg/kg, 8 weeks): 4.7 ± 0.9
- Steatosis score ([4]; HFD + CCl4, 0.1 mg/kg, 8 weeks): 0.8 ± 1.0
- Ballooning score ([4]; HFD + CCl4, 0.3 mg/kg, 8 weeks): 1.4 ± 0.5
- Fibrosis Score ([4]; HFD + CCl4, 0.3 mg/kg, 8 weeks): 2.3 ± 0.5
- Lobular inflammation score ([4]; HFD + CCl4, 0.3 mg/kg, 8 weeks): 2.2 ± 0.4
- NAFLD activity score ([4]; HFD + CCl4, 0.3 mg/kg, 8 weeks): 4.0 ± 0.9
- Steatosis score ([4]; HFD + CCl4, 0.3 mg/kg, 8 weeks): 0.3 ± 0.5
- Ballooning score ([4]; HFD + CCl4, 1 mg/kg, 8 weeks): 2.0 ± 0.0
- Fibrosis Score ([4]; HFD + CCl4, 1 mg/kg, 8 weeks): 2.3 ± 0.5
- Lobular inflammation score ([4]; HFD + CCl4, 1 mg/kg, 8 weeks): 2.2 ± 0.4
- NAFLD activity score ([4]; HFD + CCl4, 1 mg/kg, 8 weeks): 4.3 ± 0.5
- Steatosis score ([4]; HFD + CCl4, 1 mg/kg, 8 weeks): 0.1 ± 0.3
- Ballooning score ([4]; HFD + CCl4, 3 mg/kg, 8 weeks): 1.1 ± 0.3
- Fibrosis Score ([4]; HFD + CCl4, 3 mg/kg, 8 weeks): 2.0 ± 0.0
- Lobular inflammation score ([4]; HFD + CCl4, 3 mg/kg, 8 weeks): 1.4 ± 0.5
- NAFLD activity score ([4]; HFD + CCl4, 3 mg/kg, 8 weeks): 2.8 ± 1.0
- Steatosis score ([4]; HFD + CCl4, 3 mg/kg, 8 weeks): 0.2 ± 0.4
- Ballooning score ([4]; HFD + CCl4, 10 mg/kg, 8 weeks): 1.0 ± 0.7
- Fibrosis Score ([4]; HFD + CCl4, 10 mg/kg, 8 weeks): 2.0 ± 0.0
- Lobular inflammation score ([4]; HFD + CCl4, 10 mg/kg, 8 weeks): 1.1 ± 0.5
- NAFLD activity score ([4]; HFD + CCl4, 10 mg/kg, 8 weeks): 2.6 ± 1.0
- Steatosis score ([4]; HFD + CCl4, 10 mg/kg, 8 weeks): 0.4 ± 1.0
- decrease of fibrosis score ([4]; abstract): 0.6 points
- decrease of ballooning score ([4]; abstract, maximum effect): 0.8 points
- decrease of inflammation score ([4]; abstract, maximum effect): 1.8 points
- reduction of NAS ([4]; abstract, maximum effect): up to 3.7 points
- lowering of LDL-C levels [4, 9]: up to 88.2%
- lowering of serum cholesterol levels [4, 9]: ≤ 69.2%
- half-life at 2 μM [5]: > 6.21 h
- Atgl expression [6]: dose-responsive elevation
- Cpt1a expression [6]: dose-dependent upregulation
- Pdk4 expression [6]: significant increases
- Srebf1 and Scd1 expression [6]: coordinated downregulation
- genes encoding the inflammatory factors Tnfrsf1a, IL6, IL17rb, IL17ra [6]: inhibited
- LDL-R gene expression ([6]; dose-dependent): upregulated
- expression of Dio1, Thrsp and Me1 ([6]; dose-dependent): significantly upregulated
- peroxisome-related genes ([6]; dose-dependent): upregulation
- expression of collagen synthesis genes ([6]; with increasing doses): significantly suppressed
